In article PMC9950073, “Alleviation of arthritis through prevention of neutrophil extracellular traps by an orally available inhibitor of protein arginine deiminase 4” (Scientific Reports, 2023):

Tests used:
[1] = target: T1, CYP2C9 (Homo sapiens, UniProt P11712); experiment: CYP inhibition in human liver microsome, CYP2C9; assay type: in vitro ADME
T1 construct: from tissue; host or cells: human liver microsomes
Experimental: CYP inhibition: Human liver microsome (0.1–0.5 mg/mL for various CYPs) and appropriate probe substrates (2.5–20 µM) were incubated in potassium phosphate buffer with or without JBI-589 for 5 min at 37 °C. The reaction was initiated by addition of NADPH (1 mM), incubated at 37 °C for 10 min and quenched (0.5% Formic acid in internal standard (IS) containing ACN). Samples were then centrifuged and taken for LC–MS/MS analysis. Percent change in metabolite formation for each substrate under above conditions using formula: Percent inhibition = [1 − (test area ratio/control area ratio)] *100.

[2] = Mice PK study; assay type: in vivo, Balb/c mice
Description: Institutional Animal Ethical Committee (IAEC) of Jubilant Biosys Ltd (IAEC/JDC/2019/188R (for Mice) nominated by CPCSEA (Committee for the Purpose of Control and Supervision of Experiments on Animals) approved the mice pharmacokinetic experiments. Male Balb/c mice (~ 6–8 weeks old with body weight range of 22–25 g) were procured from Vivo Biotech, Hyderabad, India. Rodent feed (manufactured by Altromin Spezialfutter GmbH & Co. KG., ImSeelenkamp20, D-32791 Lage), and water was provided ad libitum. Intravenous (IV) and oral (PO) pharmacokinetics studies were done at doses of 2 mg/Kg and 10 mg/Kg, respectively at a dose volume of 10 mL/Kg. Sparse sampling was done with three mice at each time point. Blood (~ 100 µL) was collected from retro-orbital plexus at 0.12, 0.25, 0.5, 1, 2, 4, 8 and 24 h for IV and 0.25, 0.5, 1, 2, 4, 8, 10 and 24 h for PO route, in tubes containing K2 and EDTA as anticoagulant. It was centrifuged for 5 min at 10,000 rpm in a refrigerated centrifuge (Biofuge, Heraeus, Germany) maintained at 4 °C for plasma separation. For oral dosing of JBI-589 suspension formulation was prepared using 0.5% Tween-80 and 0.5% methyl cellulose (0.5% in water), while for IV dosing 5% DMSO, 5% Solutol:ethanol (1:1, v/v) and 90% normal saline was used.

[3] = Rat pharmacokinetics; settings: in vivo, dose not given
Description: Supplement 41598_2023_30246_MOESM1_ESM.docx, table 3: Supplementary Table S3. In vivo pharmacokinetic parameters of JBI-589 in mouse and rat | column: Dose; t1/2; Cmax; C0; AUC0-t; AUC0-∞; CL; F

[4] = system: G-CSF-modified collagen-induced arthritis; experiment: G-CSF-modified collagen-induced arthritis model; assay type: in vivo, C57BL/6 mice
Experimental: C57BL/6 mice aged 8– 12 weeks were immunized with the emulsion of complete Freund's adjuvant (CFA, catalog number: 7023, Chondrex, Redmond, WA) and 100 μg of chicken type II collagen (catalog number: 20012, Chondrex) in a 1:1 mixture (total 100 μl) subcutaneously into the base of the tail on day 0[18]. The booster immunization of CII with incomplete Freund's adjuvant (catalog number: 7002, Chondrex) was performed on day 21. Recombinant human G-CSF (Filgrastim, Neupogen, Amgen, Inc., Thousand Oaks, CA) was injected at 10 μg peritoneally once daily from day 20 to day 23. Vehicle (water) or 50 mg/kg of JBI-589 was orally administered twice daily from day 20 to day 56. The severity of arthritis was evaluated using the following clinical scoring system for each limb: 0, normal; 1, swelling in one finger joint; 2, swelling in more than one finger joint or wrist or ankle joint; 3, swelling in the entire paw; and 4, deformity and or ankylosis. The maximum score was 16 per mouse. […] At the end of the study, all mice were euthanized after giving anesthesia using 2% isoflurane (Patterson Veterinary, catalog number: 07–893-2374). […]
H&E stain of joint tissue was performed following the previously described method.
Inflammation was scored on a scale of 0 (no inflammation) to 3 (severe inflamed joint) depending on the number of inflammatory cells in the synovial cavity (exudate) and synovial tissue (infiltrate)[39]. […]
Expressions of target proteins in synovial tissue on the joint surface of wrists and ankles were determined by immunoblotting. Synovial tissue was homogenized in radioimmunoprecipitation assay (RIPA) buffer (catalog number: 89901, Thermo Fisher Scientific) with protease inhibitor cocktails (catalog number: R0278, Sigma, St. Louis, MO) on ice. Following centrifugation at 20,000 g for 20 min at 4 °C, the protein content of the supernatant was determined by the Bradford protein assay (catalog number: 5000006, Bio-Rad Laboratories), and an equal amount of protein per sample was used. Protein lysate was resolved on gradient gels (Bolt 4–12% Bis–Tris Plus gels, catalog number: NW04122BOX, Life Technologies) and electroblotted on polyvinylidene difluoride (PVDF) membranes (catalog number: IB401001, Invitrogen) using the iBlot system (Thermo Fisher Scientific). After blocking with 5% BSA TBS-T buffer (0.05% Tween-20 in 1 × TBS) for 1 h at room temperature, the membranes were incubated with primary antibodies against myeloperoxidase (MPO, 1:500, catalog number: A0398, DAKO, Santa Clara, CA) or citrullinated histone H4 (H4Cit, 1: 1,000, catalog number: 07-596, Millipore, Burlington, MA) at 4 °C overnight, and subsequently with goat anti-rabbit IgG (H + L)- HRP (1:10,000, catalog number: 1706515, Bio-Rad) for 2 h at room temperature. Blots were developed with enhanced chemiluminescence substrate (catalog number: 32106, Thermo Fisher Scientific). Equal loading was confirmed by GAPDH (catalog number: G9545-200UL, 1: 10,000, Sigma). The intensity of the bands on blots was quantified using ImageJ software.

[5] = male, Balb/c, mouse, plasma, 2 mg/kg, IV
[6] = male, Balb/c, mouse, plasma, 10 mg/kg, PO
[7] = 50 mg/kg orally twice daily day 20 to day 56

T1 sequence (P11712 whole entry): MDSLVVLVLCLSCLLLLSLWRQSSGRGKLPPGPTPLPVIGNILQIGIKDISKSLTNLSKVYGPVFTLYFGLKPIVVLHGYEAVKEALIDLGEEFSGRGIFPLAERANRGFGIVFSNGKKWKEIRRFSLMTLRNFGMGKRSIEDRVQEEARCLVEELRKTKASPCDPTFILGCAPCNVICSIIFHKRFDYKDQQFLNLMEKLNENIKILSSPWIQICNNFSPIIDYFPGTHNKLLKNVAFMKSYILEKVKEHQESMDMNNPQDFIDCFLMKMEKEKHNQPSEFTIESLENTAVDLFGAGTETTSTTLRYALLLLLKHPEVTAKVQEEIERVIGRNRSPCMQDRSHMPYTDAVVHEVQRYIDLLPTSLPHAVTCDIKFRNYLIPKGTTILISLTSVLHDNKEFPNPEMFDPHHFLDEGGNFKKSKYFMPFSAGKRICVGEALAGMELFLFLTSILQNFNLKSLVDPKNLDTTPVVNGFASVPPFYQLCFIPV

In the case of `Cc1c(-c2cc3ccccc3n2Cc2ccc(F)cc2)nc2cc(C(=O)N3CCC[C@@H](N)C3)ccn12` [JBI-589, (R)-(3-aminopiperidin-1-yl)(2-(1-(4-fluorobenzyl)-1H-indol-2-yl)-3-methylimidazo[1,2-a]pyridin-7-yl)methanone], the inhibition at 10 min, 10 µM ([1]; human liver microsomes, 10 µM, human liver microsome, read-out: CYP2C9 inhibition (% inh @10 µM)) is reported as < 50%, the IC50 ([1]; predicted from % inhibition, text says major CYPs tested) is reported as > 10 µM and the t1/2 ([2]; 10 mg/kg, PO) is reported as 6.3 h. The AUC(0-inf) [2, 5] was 4380 ng·h/mL, the AUC(0-t) [2, 5] was 3960 ng·h/mL and the C0 [2, 5] was 968 ng/mL. For the same compound, the Cmax [2, 5] was 828 ng/mL, the Vd [2, 5] was 5.24 L/kg and the clearance [2, 5] was 7.61 mL/min/kg. For the same compound, the half-life [2, 5] was 8 h, the AUC(0-inf) [2, 6] was 13500 ng·h/mL and the AUC(0-t) [2, 6] was 12500 ng·h/mL. For the same compound, the Cmax [2, 6] was 874 ng/mL, the bioavailability [2, 6] was 63% and the AUC(0-inf) ([3]; 2 mg/Kg, IV) was 1390 ng·h/mL. The AUC(0-t) ([3]; 2 mg/Kg, IV) was 1320 ng·h/mL, the C0 ([3]; 2 mg/Kg, IV) was 451 ng/mL and the Cmax ([3]; 2 mg/Kg, IV) was 419 ng/mL. For the same compound, the Vd ([3]; 2 mg/Kg, IV) was 13.2 L/kg, the clearance ([3]; 2 mg/Kg, IV) was 24.3 mL/min/kg and the half-life ([3]; 2 mg/Kg, IV) was 6.32 h. It also gave an AUC(0-inf) ([3]; 10 mg/Kg, PO) of 3580 ng·h/mL, an AUC(0-t) ([3]; 10 mg/Kg, PO) of 3390 ng·h/mL and a Cmax ([3]; 10 mg/Kg, PO) of 335 ng/mL. For the same compound, the bioavailability ([3]; 10 mg/Kg, PO) was 51.4%, the half-life ([3]; 10 mg/Kg, PO) was 5.6 h and the “effect on arthritis incidence” value [4, 7] was “significant effect”. For the same compound, the “effect on arthritis severity” value [4, 7] was “significant effect”, the “lesions positive for H3Cit and Ly6G and DNA within the joint space and on the bone surface (immunofluorescence)” value ([4]; ankle joints day 56, present in vehicle-treated mice) was “not in JBI-589-treated mice” and the “eroded surface of bones (micro-CT)” value ([4]; ankle joints, vs control mice) was “fewer areas of eroded surface”. For the same compound, the “plasma levels of H3Cit” value ([4]; day 22, vs vehicle) was “lower”, the “serum IL-6” value ([4]; day 56, vs vehicle) was “reduced” and the “serum anti-Collagen Type II (CII) IgG2c antibody level” value ([4]; day 56, vs vehicle) was “comparative”. The “serum anti-Collagen Type II (CII) IgG antibody level” value ([4]; day 56, vs vehicle) was “comparative”, the “H4Cit in synovial tissue (western blot)” value ([4]; vs vehicle) was “less” and the “Myeloperoxidase (MPO) in synovial tissue (western blot)” value ([4]; vs vehicle) was “less”. For the same compound, the “inflammation (exudate and infiltrate), H&E staining of ankle joint” value ([4]; vs vehicle) was “alleviated severity of arthritis” and the “serum anti-H3Cit antibody” value ([4]; vs vehicle) was “less”.
